Experimental data from patent US9345703B2, “Kappa opioid receptor effectors and uses thereof” (University of Kansas, priority 2011, dated 2016).
Converted amounts (≈) assume the structure as drawn.

Tests used:
physchem = assay: physchem
Description: In addition to profiling the selectivity of this class of KOR ligands, basic pharmacological properties were assessed.

[1] = Hepatic microsome stability, mouse; type: in vitro ADME; conditions: mouse microsomes, 1 hour
Source text: The microsomal stability assay is commonly used to rank compounds according to their metabolic stability. This assay addresses the pharmacologic question of how long the parent compound will remain circulating in plasma within the body.

5ht1a = 5ht1a (Homo sapiens, UniProt P08908); assay: PDSP radioligand binding assay
Description: (§1) The compound was initially screened in radioligand binding assays at a constant concentration (10 μM) to identify possible activity of the compound. Results showing significant activity in the initial screen were selected for Ki determinations.
(§2) As a representative of the Chemotype II series, the MLPCN probe molecule 2{8} was subjected to a binding assay panel of 44 GPCR and other molecular targets by the Pyschoactive Drug Screening Program (PDSP) (Table 10). The compound was initially screened in a radioligand binding assay at a constant concentration (10 μM) to identify possible activity of the compound. Results showing significant activity in the initial screen were selected for Ki determinations.

5ht1b = 5ht1b (Homo sapiens, UniProt P28222); assay: PDSP radioligand binding assay
Description: as §1, §2

5ht1d = 5ht1d (Homo sapiens, UniProt P28221); assay: PDSP radioligand binding assay
Description: as §1, §2

5ht1e = 5ht1e (Homo sapiens, UniProt P28566); assay: PDSP radioligand binding assay
Description: as §1, §2

5ht2a = 5ht2a (Homo sapiens, UniProt P28223); assay: PDSP radioligand binding assay
Description: as §1, §2

5ht2b = 5ht2b (Homo sapiens, UniProt P41595); assay: PDSP radioligand binding assay
Description: as §1, §2

5ht2c = 5ht2c (Homo sapiens, UniProt P28335); assay: PDSP radioligand binding assay
Description: as §1, §2

5ht3 = 5ht3 (Homo sapiens, UniProt P46098); assay: PDSP radioligand binding assay
Description: as §1, §2

5ht5a = 5ht5a (Homo sapiens, UniProt P47898); assay: PDSP radioligand binding assay
Description: as §1, §2

5ht6 = 5ht6 (Homo sapiens, UniProt P50406); assay: PDSP radioligand binding assay
Description: as §1, §2

5ht7 = 5ht7 (Homo sapiens, UniProt P34969); assay: PDSP radioligand binding assay
Description: as §1, §2

Alpha1A = Alpha1A (Homo sapiens, UniProt P35348); assay: PDSP radioligand binding assay
Description: as §1, §2

Alpha1B = Alpha1B (Homo sapiens, UniProt P35368); assay: PDSP radioligand binding assay
Description: as §1, §2

Alpha1D = Alpha1D (Homo sapiens, UniProt P25100); assay: PDSP radioligand binding assay
Description: as §1, §2

Alpha2A = Alpha2A (Homo sapiens, UniProt P08913); assay: PDSP radioligand binding assay
Description: as §1, §2

Alpha2B = Alpha2B (Homo sapiens, UniProt P18089); assay: PDSP radioligand binding assay
Description: as §1, §2

Alpha2C = Alpha2C (Homo sapiens, UniProt P18825); assay: PDSP radioligand binding assay
Description: as §1, §2

BZP Rat Brain Site = assay: PDSP radioligand binding assay
Description: as §1, §2

Beta1 = Beta1 (Homo sapiens, UniProt P08588); assay: PDSP radioligand binding assay
Description: as §1, §2

Beta2 = Beta2 (Homo sapiens, UniProt P07550); assay: PDSP radioligand binding assay
Description: as §1, §2

Beta3 = Beta3 (Homo sapiens, UniProt P13945); assay: PDSP radioligand binding assay
Description: as §1, §2

D1 = D1 (Homo sapiens, UniProt P21728); assay: PDSP radioligand binding assay
Description: as §1, §2

D2 = D2 (Homo sapiens, UniProt P14416); assay: PDSP radioligand binding assay
Description: as §1, §2

D4 = D4 (Homo sapiens, UniProt P21917); assay: PDSP radioligand binding assay
Description: as §1, §2

D5 = D5 (Homo sapiens, UniProt P21918); assay: PDSP radioligand binding assay
Description: as §1, §2

GabaA = assay: PDSP radioligand binding assay
Description: as §1, §2

H1 = H1 (Homo sapiens, UniProt P35367); assay: PDSP radioligand binding assay
Description: as §1, §2

H2 = H2 (Homo sapiens, UniProt P25021); assay: PDSP radioligand binding assay
Description: as §1, §2

H3 = H3 (Homo sapiens, UniProt Q9Y5N1); assay: PDSP radioligand binding assay
Description: as §1, §2

H4 = H4 (Homo sapiens, UniProt Q9H3N8); assay: PDSP radioligand binding assay
Description: as §1, §2

M1 = M1 (Homo sapiens, UniProt P11229); assay: PDSP radioligand binding assay
Description: as §1, §2

M2 = M2 (Homo sapiens, UniProt P08172); assay: PDSP radioligand binding assay
Description: as §1, §2

M3 = M3 (Homo sapiens, UniProt P20309); assay: PDSP radioligand binding assay
Description: as §1, §2

M4 = M4 (Homo sapiens, UniProt P08173); assay: PDSP radioligand binding assay
Description: as §1, §2

M5 = M5 (Homo sapiens, UniProt P08912); assay: PDSP radioligand binding assay
Description: as §1, §2

NET = NET (Homo sapiens, UniProt P23975); assay: PDSP radioligand binding assay
Description: as §1, §2

SERT = SERT (Homo sapiens, UniProt P31645); assay: PDSP radioligand binding assay
Description: as §1, §2

Sigma1 = assay: PDSP radioligand binding assay
Description: as §1, §2

Sigma2 = Sigma2 (Rattus norvegicus, UniProt Q5U3Y7); assay: PDSP radioligand binding assay
Description: as §1, §2

Chain of Alpha1B (P35368 whole entry): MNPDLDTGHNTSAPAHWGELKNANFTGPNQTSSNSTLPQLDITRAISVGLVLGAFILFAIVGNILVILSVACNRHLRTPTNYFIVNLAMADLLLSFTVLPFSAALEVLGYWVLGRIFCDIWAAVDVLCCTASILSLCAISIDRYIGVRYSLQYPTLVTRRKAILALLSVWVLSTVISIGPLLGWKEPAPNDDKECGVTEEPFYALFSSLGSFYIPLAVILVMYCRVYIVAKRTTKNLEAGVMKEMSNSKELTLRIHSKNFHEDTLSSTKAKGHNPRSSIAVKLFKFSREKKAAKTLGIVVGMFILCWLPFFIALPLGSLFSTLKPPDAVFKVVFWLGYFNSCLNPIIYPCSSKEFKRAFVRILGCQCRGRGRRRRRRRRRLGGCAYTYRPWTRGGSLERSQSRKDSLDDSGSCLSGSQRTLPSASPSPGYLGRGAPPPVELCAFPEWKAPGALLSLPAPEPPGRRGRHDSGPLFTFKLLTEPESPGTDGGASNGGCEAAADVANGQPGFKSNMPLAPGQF
Chain of 5ht1a (P08908 whole entry, species assumed): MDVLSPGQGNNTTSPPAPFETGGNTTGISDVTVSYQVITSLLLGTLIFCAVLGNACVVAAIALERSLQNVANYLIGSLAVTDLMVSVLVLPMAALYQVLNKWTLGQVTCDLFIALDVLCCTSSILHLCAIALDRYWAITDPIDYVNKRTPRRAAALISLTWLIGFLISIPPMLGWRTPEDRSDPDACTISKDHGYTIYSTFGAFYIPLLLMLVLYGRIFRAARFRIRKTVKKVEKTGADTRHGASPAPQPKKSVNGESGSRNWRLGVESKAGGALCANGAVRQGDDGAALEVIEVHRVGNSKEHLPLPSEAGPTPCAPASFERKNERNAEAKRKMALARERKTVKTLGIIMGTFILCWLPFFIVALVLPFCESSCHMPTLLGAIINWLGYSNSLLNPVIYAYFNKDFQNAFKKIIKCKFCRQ
Chain of Beta2 (P07550 whole entry): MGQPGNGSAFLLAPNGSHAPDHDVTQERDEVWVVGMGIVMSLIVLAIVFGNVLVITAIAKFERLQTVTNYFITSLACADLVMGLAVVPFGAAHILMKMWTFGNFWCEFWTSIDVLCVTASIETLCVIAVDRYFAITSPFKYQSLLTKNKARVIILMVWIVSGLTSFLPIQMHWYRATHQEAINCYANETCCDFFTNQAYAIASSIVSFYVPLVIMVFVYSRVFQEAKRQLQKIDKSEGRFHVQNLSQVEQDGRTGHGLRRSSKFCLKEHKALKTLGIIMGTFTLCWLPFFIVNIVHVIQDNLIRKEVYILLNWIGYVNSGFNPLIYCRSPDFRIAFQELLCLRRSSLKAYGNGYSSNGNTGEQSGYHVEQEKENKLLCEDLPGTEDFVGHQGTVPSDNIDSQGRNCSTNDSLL
Chain of M1 (P11229 whole entry): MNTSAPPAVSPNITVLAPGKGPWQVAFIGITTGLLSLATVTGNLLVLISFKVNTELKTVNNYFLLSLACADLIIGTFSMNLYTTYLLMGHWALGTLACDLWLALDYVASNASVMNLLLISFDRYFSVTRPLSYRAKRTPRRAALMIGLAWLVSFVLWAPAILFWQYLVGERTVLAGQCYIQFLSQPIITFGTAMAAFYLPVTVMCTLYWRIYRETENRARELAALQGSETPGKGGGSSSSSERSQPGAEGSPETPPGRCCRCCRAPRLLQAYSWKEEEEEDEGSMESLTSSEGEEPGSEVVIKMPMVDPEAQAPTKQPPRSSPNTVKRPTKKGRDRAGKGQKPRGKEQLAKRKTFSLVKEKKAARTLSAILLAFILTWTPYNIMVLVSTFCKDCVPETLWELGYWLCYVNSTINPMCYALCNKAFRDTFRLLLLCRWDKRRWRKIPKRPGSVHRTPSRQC
Chain of 5ht3 (P46098 24-478, species assumed): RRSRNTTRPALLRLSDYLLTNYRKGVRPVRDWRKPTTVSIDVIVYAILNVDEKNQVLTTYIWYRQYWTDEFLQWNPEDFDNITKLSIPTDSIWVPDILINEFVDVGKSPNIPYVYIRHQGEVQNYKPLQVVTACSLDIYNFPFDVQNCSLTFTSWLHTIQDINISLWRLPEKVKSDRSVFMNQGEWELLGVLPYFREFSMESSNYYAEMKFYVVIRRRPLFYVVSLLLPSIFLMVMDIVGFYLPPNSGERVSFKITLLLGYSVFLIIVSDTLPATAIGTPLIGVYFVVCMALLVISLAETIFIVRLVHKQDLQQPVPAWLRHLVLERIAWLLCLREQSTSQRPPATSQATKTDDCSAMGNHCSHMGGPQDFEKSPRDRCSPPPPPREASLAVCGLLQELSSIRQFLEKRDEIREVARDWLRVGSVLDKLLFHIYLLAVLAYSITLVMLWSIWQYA
Chain of 5ht1d (P28221 whole entry, species assumed): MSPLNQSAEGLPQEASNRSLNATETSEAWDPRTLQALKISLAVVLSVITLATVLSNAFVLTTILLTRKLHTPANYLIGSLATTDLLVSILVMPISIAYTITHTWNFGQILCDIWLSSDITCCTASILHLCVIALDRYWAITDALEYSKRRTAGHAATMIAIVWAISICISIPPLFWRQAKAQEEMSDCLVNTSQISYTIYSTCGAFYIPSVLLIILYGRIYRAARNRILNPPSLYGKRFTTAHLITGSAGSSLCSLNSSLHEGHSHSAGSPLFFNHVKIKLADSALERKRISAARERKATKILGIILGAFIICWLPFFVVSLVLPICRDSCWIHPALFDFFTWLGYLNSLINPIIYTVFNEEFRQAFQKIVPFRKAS
Chain of Beta1 (P08588 whole entry): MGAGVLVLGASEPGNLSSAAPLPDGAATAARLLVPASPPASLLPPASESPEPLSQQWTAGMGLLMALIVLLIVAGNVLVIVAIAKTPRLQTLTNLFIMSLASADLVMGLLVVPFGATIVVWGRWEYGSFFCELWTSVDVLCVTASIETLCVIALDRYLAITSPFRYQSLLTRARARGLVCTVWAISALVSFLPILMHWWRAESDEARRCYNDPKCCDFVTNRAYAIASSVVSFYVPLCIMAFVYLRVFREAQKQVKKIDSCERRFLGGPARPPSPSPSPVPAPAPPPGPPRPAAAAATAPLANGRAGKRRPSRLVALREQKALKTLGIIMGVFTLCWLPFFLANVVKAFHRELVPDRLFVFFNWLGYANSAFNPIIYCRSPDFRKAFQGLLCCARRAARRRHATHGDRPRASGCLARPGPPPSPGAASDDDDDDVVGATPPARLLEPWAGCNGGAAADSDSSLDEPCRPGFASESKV
Chain of 5ht2c (P28335 33-458, species assumed): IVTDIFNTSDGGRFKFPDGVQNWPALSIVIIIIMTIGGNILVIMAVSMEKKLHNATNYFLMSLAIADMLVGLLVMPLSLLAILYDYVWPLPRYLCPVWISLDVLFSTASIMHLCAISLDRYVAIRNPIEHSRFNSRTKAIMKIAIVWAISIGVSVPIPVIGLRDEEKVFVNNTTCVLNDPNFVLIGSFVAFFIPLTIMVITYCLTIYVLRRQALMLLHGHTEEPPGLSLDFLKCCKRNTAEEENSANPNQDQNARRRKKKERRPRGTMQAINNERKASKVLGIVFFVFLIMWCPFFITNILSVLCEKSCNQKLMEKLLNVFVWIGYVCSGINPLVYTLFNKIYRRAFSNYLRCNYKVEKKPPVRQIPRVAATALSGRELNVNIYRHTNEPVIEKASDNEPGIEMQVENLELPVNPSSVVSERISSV
Chain of D4 (P21917 whole entry): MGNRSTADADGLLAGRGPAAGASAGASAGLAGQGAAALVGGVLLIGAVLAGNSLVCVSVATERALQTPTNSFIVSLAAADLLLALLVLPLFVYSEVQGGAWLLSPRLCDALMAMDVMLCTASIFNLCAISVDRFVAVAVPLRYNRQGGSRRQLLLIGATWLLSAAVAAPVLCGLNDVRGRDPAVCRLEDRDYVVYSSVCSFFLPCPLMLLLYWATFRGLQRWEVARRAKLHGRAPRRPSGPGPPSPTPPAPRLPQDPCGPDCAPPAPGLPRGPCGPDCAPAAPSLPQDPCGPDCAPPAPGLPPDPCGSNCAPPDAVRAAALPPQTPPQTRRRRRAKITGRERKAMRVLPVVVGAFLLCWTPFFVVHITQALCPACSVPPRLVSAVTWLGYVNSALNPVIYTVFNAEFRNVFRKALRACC
Chain of 5ht7 (P34969 whole entry, species assumed): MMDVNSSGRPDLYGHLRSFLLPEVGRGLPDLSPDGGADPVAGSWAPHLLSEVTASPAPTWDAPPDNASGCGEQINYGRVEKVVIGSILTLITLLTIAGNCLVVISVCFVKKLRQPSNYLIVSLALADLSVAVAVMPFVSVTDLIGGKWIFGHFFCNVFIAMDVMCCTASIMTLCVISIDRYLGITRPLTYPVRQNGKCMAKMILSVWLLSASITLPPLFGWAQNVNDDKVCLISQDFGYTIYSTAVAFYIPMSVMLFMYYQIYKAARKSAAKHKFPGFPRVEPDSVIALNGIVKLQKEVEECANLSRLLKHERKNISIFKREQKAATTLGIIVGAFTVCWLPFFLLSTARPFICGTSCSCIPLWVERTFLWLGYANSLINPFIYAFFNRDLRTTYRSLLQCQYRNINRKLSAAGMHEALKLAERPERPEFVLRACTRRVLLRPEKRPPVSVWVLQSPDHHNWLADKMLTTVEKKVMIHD
Chain of H4 (Q9H3N8 whole entry): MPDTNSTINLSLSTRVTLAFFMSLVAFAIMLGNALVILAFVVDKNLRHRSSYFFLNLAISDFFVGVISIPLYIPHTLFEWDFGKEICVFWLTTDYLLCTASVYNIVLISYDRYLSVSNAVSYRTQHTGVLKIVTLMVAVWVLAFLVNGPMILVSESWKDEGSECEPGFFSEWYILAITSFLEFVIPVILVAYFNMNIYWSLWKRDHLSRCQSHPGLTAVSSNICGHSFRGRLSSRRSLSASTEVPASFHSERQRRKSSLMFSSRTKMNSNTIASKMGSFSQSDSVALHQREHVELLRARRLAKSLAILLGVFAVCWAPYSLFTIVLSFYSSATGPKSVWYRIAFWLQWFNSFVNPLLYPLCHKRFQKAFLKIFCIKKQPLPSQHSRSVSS

**Q.** For `COc1ccc(N2CCN(CCCNC(=O)Cn3c(=O)c4cccn4c4c(C)ccnc43)CC2)cc1` [Compound 1{3}, N-(3-(4-(4-Methoxyphenyl)piperazin-1-yl)propyl)-2-(1-methyl-6-oxopyrido[2,3-e]pyrrolo[1,2-a]pyrazin-5(6H)-yl)acetamide], which solubility (physchem; aqueous buffer) is on record?
**A.** Its solubility is greater than 90 µg/mL.

**Q.** What about the solubility (physchem; pH 5) of the same molecule?
**A.** The solubility was 96.6 µg/mL (≈ 198 µM).

**Q.** And the solubility (physchem; pH 6.2)?
**A.** The solubility was 90.6 µg/mL (≈ 185 µM).

**Q.** What about the “microsomal stability, remaining” value [1] of the same molecule?
**A.** The value was 7.3%.

**Q.** And the Ki (5ht1a; Table 5)?
**A.** The Ki was greater than 10 µM.

**Q.** And the Ki (5ht1b; Table 5)?
**A.** The Ki was greater than 10 µM.

**Q.** What about the Ki (5ht1d; Table 5) of the same molecule?
**A.** Its Ki is 0.702 µM.

**Q.** What about the Ki (5ht1e; Table 5) of the same molecule?
**A.** Its Ki is greater than 10 µM.

**Q.** What about the Ki (5ht2a; Table 5) of the same molecule?
**A.** The Ki was greater than 10 µM.

**Q.** And the Ki (5ht2b; Table 5)?
**A.** The Ki was 1.92 µM.

**Q.** What about the Ki (5ht2c; Table 5) of the same molecule?
**A.** The Ki was greater than 10 µM.

**Q.** And the Ki (5ht3; Table 5)?
**A.** The Ki was greater than 10 µM.

**Q.** And the Ki (5ht5a; Table 5)?
**A.** The Ki was greater than 10 µM.

**Q.** What about the Ki (5ht6; Table 5) of the same molecule?
**A.** Its Ki is greater than 10 µM.

**Q.** What about the Ki (5ht7; Table 5) of the same molecule?
**A.** The Ki was greater than 10 µM.

**Q.** And the Ki (Alpha1A; Table 5)?
**A.** The Ki was greater than 10 µM.

**Q.** What about the Ki (Alpha1B; Table 5) of the same molecule?
**A.** The Ki was greater than 10 µM.

**Q.** And the Ki (Alpha1D; Table 5)?
**A.** The Ki was greater than 10 µM.

**Q.** What about the Ki (Alpha2A; Table 5) of the same molecule?
**A.** The Ki was greater than 10 µM.

**Q.** And the Ki (Alpha2B; Table 5)?
**A.** Its Ki is 7.7 µM.

**Q.** And the Ki (Alpha2C; Table 5)?
**A.** The Ki was 0.694 µM.

**Q.** What about the Ki (BZP Rat Brain Site; Table 5) of the same molecule?
**A.** Its Ki is greater than 10 µM.

**Q.** And the Ki (Beta1; Table 5)?
**A.** Its Ki is greater than 10 µM.

**Q.** And the Ki (Beta2; Table 5)?
**A.** Its Ki is greater than 10 µM.

**Q.** And the Ki (Beta3; Table 5)?
**A.** Its Ki is greater than 10 µM.

**Q.** And the Ki (D1; Table 5)?
**A.** The Ki was greater than 10 µM.

**Q.** And the Ki (D2; Table 5)?
**A.** Its Ki is 1.35 µM.

**Q.** What about the Ki (D4; Table 5) of the same molecule?
**A.** The Ki was greater than 10 µM.

**Q.** And the Ki (D5; Table 5)?
**A.** The Ki was greater than 10 µM.

**Q.** What about the Ki (GabaA; Table 5) of the same molecule?
**A.** Its Ki is greater than 10 µM.

**Q.** What about the Ki (H1; Table 5) of the same molecule?
**A.** The Ki was 0.454 µM.

**Q.** And the Ki (H2; Table 5)?
**A.** The Ki was 3.5 µM.

**Q.** What about the Ki (H3; Table 5) of the same molecule?
**A.** Its Ki is greater than 10 µM.

**Q.** What about the Ki (H4; Table 5) of the same molecule?
**A.** Its Ki is greater than 10 µM.

**Q.** And the Ki (M1; Table 5)?
**A.** The Ki was greater than 10 µM.

**Q.** And the Ki (M2; Table 5)?
**A.** The Ki was greater than 10 µM.

**Q.** And the Ki (M3; Table 5)?
**A.** Its Ki is greater than 10 µM.

**Q.** What about the Ki (M4; Table 5) of the same molecule?
**A.** The Ki was greater than 10 µM.

**Q.** What about the Ki (M5; Table 5) of the same molecule?
**A.** The Ki was 6.4 µM.

**Q.** What about the Ki (NET; Table 5) of the same molecule?
**A.** The Ki was 0.685 µM.

**Q.** What about the Ki (SERT; Table 5) of the same molecule?
**A.** The Ki was 5.33 µM.

**Q.** And the Ki (Sigma1; Table 5)?
**A.** The Ki was greater than 10 µM.

**Q.** And the Ki (Sigma2; Table 5)?
**A.** Its Ki is greater than 10 µM.

**Q.** What does the source list for `Clc1ccc(CSc2nnc(-c3ccccn3)n2Cc2ccco2)cc1Cl` [Compound 2{8}]?
**A.** solubility in aqueous buffer (physchem; pH 5.0): < 0.1 µg/mL; solubility in aqueous buffer (physchem; pH 6.2): 0.29 µg/mL (≈ 0.695 µM); solubility in aqueous buffer (physchem; pH 7.4): 0.14 µg/mL (≈ 0.335 µM); microsomal stability, remaining [1]: 0.03%; Ki (5ht1a; Table 10): > 10 µM; Ki (5ht1b; Table 10): > 10 µM; Ki (5ht1d; Table 10): > 10 µM; Ki (5ht1e; Table 10): > 10 µM; Ki (5ht2a; Table 10): 3.79 µM; Ki (5ht2b; Table 10): 1.24 µM; Ki (5ht2c; Table 10): > 10 µM; Ki (5ht3; Table 10): > 10 µM; Ki (5ht5a; Table 10): 4.99 µM; Ki (5ht6; Table 10): > 10 µM; Ki (5ht7; Table 10): > 10 µM; Ki (Alpha1A; Table 10): > 10 µM; Ki (Alpha1B; Table 10): > 10 µM; Ki (Alpha1D; Table 10): > 10 µM; Ki (Alpha2A; Table 10): > 10 µM; Ki (Alpha2B; Table 10): 5.53 µM; Ki (Alpha2C; Table 10): 9.6 µM; Ki (BZP Rat Brain Site; Table 10): > 10 µM; Ki (Beta1; Table 10): > 10 µM; Ki (Beta2; Table 10): > 10 µM; Ki (Beta3; Table 10): 7.31 µM; Ki (D1; Table 10): 1.8 µM; Ki (D2; Table 10): > 10 µM; Ki (D4; Table 10): > 10 µM; Ki (D5; Table 10): 7.02 µM; Ki (GabaA; Table 10): > 10 µM; Ki (H1; Table 10): > 10 µM; Ki (H2; Table 10): > 10 µM; Ki (H3; Table 10): > 10 µM; Ki (H4; Table 10): > 10 µM; Ki (M1; Table 10): > 10 µM; Ki (M2; Table 10): > 10 µM; Ki (M3; Table 10): > 10 µM; Ki (M4; Table 10): > 10 µM; Ki (M5; Table 10): 4.42 µM; Ki (NET; Table 10): 5.87 µM; Ki (SERT; Table 10): > 10 µM; Ki (Sigma1; Table 10): > 10 µM; Ki (Sigma2; Table 10): 2.91 µM
